Values after ≈ are worked out from the molar mass of the structure shown. Where two headings read alike, the source gives them in different places. *1 amine or outer side, *2 acyl side, *3 side chain or, on linkers, in order; H or OH if unused. Where a SMILES comes first, the peptide text is derived from it. [ ]: non-standard residue; d: D form. The star is where a group is joined. X1 = O=C(C[C@H](N[*:1])c1ccc(O)cc1)[*:2]; dVal(3-OH) = CC(C)(O)[C@@H](N)C(=O)O; X2 = CCC(C)=C(N[*:1])C(=O)[*:2]; ΔIle(E) = CC/C(C)=C(/N)C(=O)O; Isovaleryl = CC(C)CC(=O)*; Agmatine = N=C(N)NCCCCN*; Isobutyryl = CC(C)C(=O)*; NMeA = CN[C@@H](C)C(=O)O; ΔVal = CC(C)=C(N)C(=O)O
Key:
[1] = system: Escherichia coli DSM-1116; conditions: DSM-1116, 24 h
M. tuberculosis H37Rv [2] = system: M. tuberculosis H37Rv
[3] = system: Escherichia coli K12 ΔtolC; conditions: K12, 24 h
[4] = system: Chromobacterium violaceum DSM-30191; conditions: DSM-30191, 24 h
in vivo = conditions: BALB/c, mouse
M. tuberculosis H37Rv [5] = test: Time-kill kinetics in vitro; assay type: cell-based, Mycobacterium tuberculosis; conditions: independent triplicates
[6] = system: Micrococcus luteus DSM-1790; conditions: DSM-1790, 24 h
[7] = system: Staphylococcus aureus DSM-346; conditions: DSM-346, 24 h
Pasteurella multocida [8] = system: Pasteurella multocida
[9] = system: Pseudomonas aeruginosa PA14; conditions: PA14, 24 h
Staphylococcus aureus = conditions: 4 h
M. tuberculosis = conditions: for toxicity in infected mice: mouse, in vivo
[10] = system: Mycobacterium smegmatis mc2155; conditions: mc2155, 48 h
Streptococcus uberis = conditions: 4 h
Pasteurella multocida [11] = system: Pasteurella multocida; remark: listed apart in the source
HepG2 cells = conditions: HepG2, 24 h, alamarBlue, 0.005 - 99.0 μM, mean of 4 replicates
[12] = system: intracellular M. tuberculosis H37Rv; test: Intracellular activity ex vivo in THP-1-derived macrophages; assay type: cell-based, Mycobacterium tuberculosis
[13] = system: Pseudomonas aeruginosa PAO1; conditions: PAO1, 24 h
[14] = system: Enterococcus faecium DSM-20477; conditions: DSM-20477, 24 h
eukaryotic translation = conditions: cited from earlier work
Source text: Microorganisms continue to be a major source for innovative antibiotics. Ubiquitously found but understudied soil-dwelling predatory myxobacteria have proven to be a rich source of bioactive compounds.[3]−[5] […] The myxovalargin structure was described in 1987 as comprising some congeners with Myxovalargin A (MyxA) ...

[15] = system: 23S rRNA of the large ribosomal subunit; assay type: binding, E. coli; conditions: 10 μM or 100 μM
[16] = system: wildtype E. coli ribosomes; assay type: biochemical; conditions: purified wildtype 70S ribosomes, increasing concentrations
ribosome = test: Toeprinting assay on ErmBL mRNA; assay type: biochemical, E. coli; conditions: 10–100 μM, absence of isoleucine
Experimental: To address the mechanism of action of myxovalargins, we employed the toeprinting assay, which uses reverse transcription to monitor the position of ribosomes on a mRNA (Figure 6a).[24] The assay was performed in the absence of isoleucine (Ile) such that in the absence of antibiotics, ribosomes can initiate at the AUG start codon but become stuck after translating 15 amino acids when the Ile “catch-codon” enters the A-site (Figure 6a,b). […] We also performed toeprinting reactions in the presence of 5 μM erythromycin (Ery), which allows ribosomes to translate the first 10 amino acids of the ErmBL mRNA but then stalls them with GAU (Asp) codon in the P-site (Figure 6a,b), as reported previously.[25]−[27] After pre-incubation with Ery, we titrated reactions with increasing MyxB, which also led to a loss of the Ery-dependent ErmBL stalling band and appearance of ribosomes positioned on the start codon (Figure 6b), consistent with the overlap in ribosomal binding sites of MyxB and Ery (Figure 6c,d). […] Indeed, in the MyxB-SRC, we observed the simultaneous presence of P-site tRNA and MyxB (Figure 5d) but no ribosomes with additional presence of A-site tRNA (Figure S7-5). […]

[17] = system: E. coli ribosomes bearing the A2503G mutation; assay type: biochemical

With `CC/C(C)=C(/NC(=O)[C@H](NC(=O)[C@@H](NC(=O)[C@@H](CCCNC(=N)N)NC(=O)C(NC(=O)[C@H](NC(=O)C[C@H](NC(=O)[C@H](NC(=O)[C@H](NC(=O)[C@H](C)N(C)C(=O)[C@H](C)NC(=O)C(NC(=O)CC(C)C)=C(C)C)C(C)C)C(C)C)c1ccc(O)cc1)C(C)C)=C(C)C)C(C)C)C(C)C)C(=O)N[C@H](C)C(=O)N[C@@H](C(=O)NCCCCNC(=N)N)C(C)(C)O` [MyxA, Myxovalargin A] (Isovaleryl-[ΔVal]A[NMeA][dV][dV][X1][dV][ΔVal][dR]V[dV][ΔIle(E)][dA][dVal(3-OH)]-Agmatine) the MIC [1] was 32 µg/mL (≈ 19.1 µM), the MIC (M. tuberculosis H37Rv [2]) was 0.2 µg/mL (≈ 0.119 µM) and the MIC [3] was 16 µg/mL (≈ 9.54 µM). For the same molecule, the MIC [4] was 8 µg/mL (≈ 4.77 µM), the level at 0.5 h (in vivo; ip, 10 mg/kg) was 1830 ng/mL and the level at 2 h (in vivo; ip, 10 mg/kg) was 1550 ng/mL. For the same molecule, the level at 0.5 h (in vivo; sc, 50 mg/kg) was 5260 ng/mL, the level at 2 h (in vivo; sc, 50 mg/kg) was 2280 ng/mL and the “mode of killing in vitro” value (M. tuberculosis H37Rv [5]) was “dose-dependent bactericidal activity”. The MIC [6] was 1 µg/mL (≈ 0.596 µM), the MIC [7] was 2 µg/mL (≈ 1.19 µM) and the “Survival rate 48 hpi” value (Pasteurella multocida [8]; 10 mg/kg MyxA, i.p., single dose 1 h post-infection, groups of 6) was 83%. The “Mean bacteria in liver” value (Pasteurella multocida [8]; 10 mg/kg MyxA, i.p., n=1) was 8.5 x 10^7 CFU/g, the “Mean bacteria in liver” value (Pasteurella multocida [8]; 10 mg/kg MyxA, i.p., n=5) was 0 CFU/g and the “bacteriological cure (animals)” value (Pasteurella multocida [8]; 10 mg/kg i.p.) was “five out of six”. The “Mean bacteria in liver” value (Pasteurella multocida [8]; 50 mg/kg MyxA, s.c.) was 1.8 x 10^6 CFU/g, the “Survival rate 48 hpi” value (Pasteurella multocida [8]; 50 mg/kg MyxA, s.c., single dose 1 h post-infection) was 0% and the “tolerability (clinical scoring)” value (Pasteurella multocida [8]; single 10 mg/kg i.p. dose, P. multocida sepsis model) was “well tolerated”. The MIC [9] was 16 µg/mL (≈ 9.54 µM), the MIC50 (Mannheimia haemolytica; 4 h) was 16 µg/mL (≈ 9.54 µM) and the “MIC + serum” value (Mannheimia haemolytica; 4 h) was 20 µg/mL. The MIC90 (Mannheimia haemolytica; bovine isolates, n = 55) was 16 µg/mL (≈ 9.54 µM), the tolerability (0.5 mg/kg/day i.p., seven consecutive doses) was “well tolerated” and the tolerability (5 mg/kg/day i.p., on day 2) was “severe adverse effects”. The “half-life (in words)” value (mice, i.p. 0.5, 2 and 5 mg/kg, blood, LC-MS) was “long half-life”, the MIC (Staphylococcus aureus) was 1 to 2 µg/mL and the “MIC + milk” value (Staphylococcus aureus) was greater than 64 µg/mL. For the same molecule, the “effect on bacterial burden in lung and spleen” value (M. tuberculosis; 2 mg/kg i.p. daily, study terminated after 1 week) was “no significant effect on bacterial burden”, the “toxicity in infected mice” value (M. tuberculosis) was “moribund after 1 week” and the MIC [10] was 4 µg/mL (≈ 2.39 µM). For the same molecule, the MIC (Streptococcus uberis) was 0.25 to 2 µg/mL, the “MIC + milk” value (Streptococcus uberis) was greater than 64 µg/mL and the MIC50 (Histophilus somni; 4 h) was 4 µg/mL (≈ 2.39 µM). The MIC range (Histophilus somni; 4 h) was 2 to 8 µg/mL, the MIC90 (Histophilus somni; bovine isolates, n = 20) was 8 µg/mL (≈ 4.77 µM) and the MIC50 (Pasteurella multocida [11]; 4 h) was 16 µg/mL (≈ 9.54 µM). For the same molecule, the “MIC + serum” value (Pasteurella multocida [11]; 4 h) was 10 µg/mL, the MIC90 (Pasteurella multocida [11]; bovine isolates, n = 25) was 16 µg/mL (≈ 9.54 µM) and the “median cytotoxic dose CTD50” value (HepG2 cells) was greater than 99 µM. The “mode of action ex vivo (intracellular)” value [12] was “bacteriostatic activity”, the MIC [13] was 32 µg/mL (≈ 19.1 µM) and the MIC [14] was 0.5 µg/mL (≈ 0.298 µM).
With `CCN1CCN(c2cc3c(cc2F)c(=O)c(C(=O)O)cn3C2CC2)CC1` [enrofloxacin, reference compound] the “Mean bacteria in liver” value (Pasteurella multocida [8]; 10 mg/kg enrofloxacin, s.c.) was 0 CFU/g and the “Survival rate 48 hpi” value (Pasteurella multocida [8]; 10 mg/kg enrofloxacin, s.c.) was 100%.
For `CC(C)=C(NC(=O)C(C)C)C(=O)N[C@@H](C)C(=O)N(C)[C@@H](C)C(=O)N[C@@H](C(=O)N[C@@H](C(=O)N[C@@H](CC(=O)N[C@@H](C(=O)NC(C(=O)N[C@H](CCCNC(=N)N)C(=O)N[C@H](C(=O)N[C@@H](C(=O)NC(C(=O)N[C@H](C)C(=O)N[C@@H](C(=O)NCCCCNC(=N)N)C(C)(C)O)=C(C)C)C(C)C)C(C)C)=C(C)C)C(C)C)c1ccc(O)cc1)C(C)C)C(C)C` [Myx C] (Isobutyryl-[ΔVal]A[NMeA][dV][dV][X1][dV][ΔVal][dR]V[dV][ΔVal][dA][dVal(3-OH)]-Agmatine), the MIC [1] was 64 µg/mL (≈ 38.8 µM), the MIC [3] was 32 µg/mL (≈ 19.4 µM) and the MIC [4] was 8 µg/mL (≈ 4.85 µM). It also gave an MIC [6] of 2 µg/mL (≈ 1.21 µM), an MIC [7] of 2 µg/mL (≈ 1.21 µM) and an MIC [9] of 32 µg/mL (≈ 19.4 µM). The MIC [10] was 4 µg/mL (≈ 2.43 µM), the MIC [13] was 64 µg/mL (≈ 38.8 µM) and the MIC [14] was 1 µg/mL (≈ 0.606 µM).
In the case of `CCC(C)=C(NC(=O)[C@H](NC(=O)[C@@H](NC(=O)[C@@H](CCCNC(=N)N)NC(=O)C(NC(=O)[C@H](NC(=O)C[C@H](NC(=O)[C@H](NC(=O)[C@H](NC(=O)[C@H](C)N(C)C(=O)[C@H](C)NC(=O)C(NC(=O)CC(C)C)=C(C)C)C(C)C)C(C)C)c1ccc(O)cc1)C(C)C)=C(C)C)C(C)C)C(C)C)C(=O)N[C@H](C)C(=O)N[C@@H](C(=O)NCCCCNC(=N)N)C(C)(C)O` [Myxovalargin] (Isovaleryl-[ΔVal]A[NMeA][dV][dV][X1][dV][ΔVal][dR]V[dV][X2][dA][dVal(3-OH)]-Agmatine), the “MIC (antitubercular activity)” value (M. tuberculosis H37Rv [2]) is listed as 0.2 µg/mL (≈ 0.119 µM), the “inhibition of eukaryotic translation” value (eukaryotic translation) is listed as “did not inhibit eukaryotic translation” and the “toxicity in infected mice” value (M. tuberculosis) is listed as “moribund within 1 week”.
Work on `CCC(C)=C(NC(=O)[C@H](NC(=O)[C@@H](NC(=O)[C@@H](CCCNC(=N)N)NC(=O)C(NC(=O)[C@H](NC(=O)C[C@H](NC(=O)[C@H](NC(=O)[C@H](NC(=O)[C@H](C)N(C)C(=O)[C@H](C)NC(=O)C(NC(=O)C(C)C)=C(C)C)C(C)C)C(C)C)c1ccc(O)cc1)C(C)C)=C(C)C)C(C)C)C(C)C)C(=O)N[C@H](C)C(=O)N[C@@H](C(=O)NCCCCNC(=N)N)C(C)(C)O` [MyxB] (Isobutyryl-[ΔVal]A[NMeA][dV][dV][X1][dV][ΔVal][dR]V[dV][X2][dA][dVal(3-OH)]-Agmatine) yielded an MIC [1] of 64 µg/mL (≈ 38.5 µM), an MIC [3] of 32 µg/mL (≈ 19.2 µM) and an MIC [4] of 32 µg/mL (≈ 19.2 µM). For the same molecule, the MIC [6] was 2 µg/mL (≈ 1.2 µM), the MIC [7] was 8 µg/mL (≈ 4.81 µM) and the MIC [9] was 32 µg/mL (≈ 19.2 µM). For the same molecule, the “protection from dimethyl sulfate modification” value [15] was “protects multiple 23S rRNA nucleotides”, the MIC [10] was 8 µg/mL (≈ 4.81 µM) and the “in vitro translation of firefly luciferase reporter” value [16] was “inhibited by MyxB in a dose-dependent fashion”. For the same molecule, the “position of arrested ribosomes (toeprint)” value (ribosome) was “ribosomes positioned with the AUG start codon in the P-site”, the MIC [13] was 64 µg/mL (≈ 38.5 µM) and the MIC [14] was 1 µg/mL (≈ 0.601 µM). The “in vitro translation of firefly luciferase reporter” value [17] was “completely resistant”.

Source: publication PMC9853869, “The Myxobacterial Antibiotic Myxovalargin: Biosynthesis, Structural Revision, Total Synthesis, and Molecular Characterization of Ribosomal Inhibition” (Journal of the American Chemical Society, 2023)
